Laboratory results: US9249184B2, “Cardiac-specific protein targeting domain” (University of Pittsburgh—of the Commonwealth System of …, priority 2010, dated 2016)
Ends that are not written are not given here.

Experiments:
human heart tissue = experiment: Ex vivo transduction of human explanted heart slices (confocal microscopy); conditions: separate explanted heart; 500 ul of 1 mM solution; 30 mins at 37° C.
Protocol: Human explanted hearts were obtained from the operating rooms of UPMC at the time of ongoing heart transplants. Heart tissue was dissected from the proximal part or the base of the heart to avoid the more scarred, infarcted, distal tissue. Small 1-2 mm thick slices of heart tissue were taken and incubated with CTP-6CF (500 ul of a 1 mM solution) or PBS, for 30 and 60 mins, at 37° C./5% CO2. At the end of the incubation period, the heart slices were washed in PBS 6 times, fixed in 2% paraformaldehyde for 4 hrs at room temperature, followed by 30% sucrose overnight at 4° C. Next day the tissue was frozen in liquid nitrogen-chilled isopentane and stored 58
at −80° C., for later cryosectioning, cross-staining with DRAQ5 and confocal microscopy. Confocal micrographs were obtained avoiding the edges because of the necessary damage associated with dissecting the heart tissue pieces. Confocal micrographs were taken 3-4 cell layers away from any edges.
To investigate if this transduction was indeed peptide specific, and not secondary to increased membrane leakiness resulting from tissue being ischemic, we incubated thin, 1-2 mm thick, heart slices, from a separate explanted heart, in only 6CF in PBS, CTP-6CF, RAN-6CF as well as 6CF labeled 6-Arginine, a known PTD. We also incubated heart slices with Evans blue dye (EBD) to assess for membrane leakiness. […]

[1] = in vitro phage display; cited from earlier work
[2] = in vitro phage display; cited from earlier work; remark: listed apart in the source
[3] = tested on: heart, liver, lung, spleen, kidney, skeletal muscle and brain; experiment: In vivo tissue transduction by biotinylated peptides coupled to Streptavidin-Alexa488 (confocal microscopy); design: species or system Balb/c mice; conditions: 10 mg/Kg i.v.; 30 minutes post-injection
Protocol: In vivo imaging studies. The initial in vivo targeting studies were performed using CTP-6CF. Female Balb/C mice were injected retro-orbitally with CTP-6CF (25 mg/Kg) and euthanized 15 minutes later, Heart cross-sections were stained for actin using phalloidin Alexa-647 (Molecular Probes, A22287) and stained for laminin using a rabbit anti-laminin antibody followed by a goat anti-rabbit Cy3 (Jackson ImmunoResearch, 111-167-003) secondary antibody. Five non-overlapping sections were taken from each heart for quantification of green fluorescence (CTP-6CF) expressed as a percentage of total area (blue; stained for actin). A control peptide (CON; […]; SEQ ID NO:15), picked from the original, unselected M13 phage library, CTP and 8-Lysine (8K, a homopolymer of lysine), a known cationic protein transduction domain, were synthesized in a biotinylated form. 200 mM of biotinylated CTP, CON and 8K, or equivalent volume of PBS, were incubated with 10 ul of Streptavidin-Alexa488 (2 ng/ml; Molecular Probes, 532354) for 2 hours at room temperature. Female Balb/c mice were intravenously (retro-orbitally) injected with peptides at a dose of 10 mg/Kg and then euthanized 30 minutes post-injection. […] For confocal microscopy, laser intensities/gains were set using negative control (PBS injected) heart tissue to minimize background fluorescence. […]

myocardial infarct = experiment: Murine infarct model (left artery ligation); assay type: in vivo, Balb/c mice; conditions: 8K-NBD study; 5 mg/Kg/injection i.p. post-op day 0, 1, 2; day 7; vs PBS
Source text: The following protocol was used and kept consistent from one set of experiments to another and between groups. Female, Balb/c, 10-20 week old mice were used for these set of studies. Female mice were chosen because of the ability to house 5/cage, as opposed to male mice (4/cage) and more importantly because female mice are able to tolerate cardiac insults better with lower post-operative mortality (19). Mice were anesthetized with intraperitoneal (i.p.) injection of 2.5% Avertin (a mixture of 15.5 ml tert-amyl alcohol to 25 grams of 2-2-2 Tribromoethanol-stock solution diluted to 2.5% concentration with PBS) at a dose of 15 μl/gm of body weight. Adequate anesthetic level was assessed by lack of response to toe-pinch and lack of a gag reflex. Mice were intubated, using direct visualization of the vocal chords, with a 22 G cannula and placed on a Harvard rodent ventilator apparatus. Tube placement was confirmed by symmetric expansion of the thoracic cavity. Mice were ventilated with ˜0.1 cc/breath tidal volume at a rate of 110 breaths/minute. […]
Mice were euthanized on post-operative day 7. […] The three sections were H&E stained, light microscopy photographs taken, and area of infarct in each section mapped out using computer software Metamorph and expressed as a percent of the whole heart. […]

apoptosis in heart = experiment: TUNEL staining of heart cross-sections in the murine infarct model; assay type: in vivo, Balb/c mice; conditions: 8K-NBD study; 5 mg/Kg/injection i.p. post-op day 0, 1, 2; day 7
Protocol: A cross-section from each heart was taken and apoptosis assessed by TUNEL staining. The nuclei were stained with Dapi, and the number of TUNEL positive nuclei expressed as a percentage of total nuclei in each field. The whole heart cross-section was taken into consideration by taking 5-6 contiguous, non-overlapping sections from each heart. […] FIG. 18 illustrates the TUNEL staining data in a quantitative manner.

Molecule: O=C(O)c1ccc2c(c1)C1(OC2=O)c2ccc(O)cc2Oc2cc(O)ccc21 [6CF, 6-carboxyfluorescene]
- uptake in human heart slices ex vivo (confocal microscopy) (human heart tissue): occasional cells showing fluorescence

Molecule: Cc1cc(-c2ccc(/N=N/c3ccc4c(S(=O)(=O)[O-])cc(S(=O)(=O)[O-])c(N)c4c3O)c(C)c2)ccc1/N=N/c1ccc2c(S(=O)(=O)[O-])cc(S(=O)(=O)[O-])c(N)c2c1O.[Na+].[Na+].[Na+].[Na+] [EBD, Evans blue dye]
- uptake in human heart slices ex vivo (confocal microscopy) (human heart tissue): did not show any fluorescence

Molecule: APWHLSSQYSRT [CTP]
- affinity for binding to apatite-based, bone-like minerals [1]: high affinity
- affinity for binding to two specific sulfated carbohydrates [2]: high affinity

Molecule: CON-SA488: biotinylated control peptide CON (ARPLEHGSDKAT) coupled to Streptavidin-Alexa488 (also: biotinylated, coupled to streptavidin-Alexa488)
- uptake in any organ [3]: did not show appreciable uptake

Molecule: KKKKKKKK-TTLDASALQME (KKKKKKKKTTLDASALQME) [8K-mutNBD]
- heart-weight to body-weight ratio (myocardial infarct): did not differ
- infarct size (myocardial infarct): worse
- TUNEL positive (apoptotic) nuclei (apoptosis in heart): lesser number of apoptotic nuclei
